Measurements reported in DBAASP.
Converted amounts (≈) assume the structure as drawn. “And” between values parts separate entries of the source, which are not always exact repeats. Equal values may be shown once.

How the values were obtained:
Test in all cases: ≥ marks a high value that may be exact or a test limit, other limits are often not marked, values filed in µg/mL are converted to µM
[1] = tested on: Pseudomonas aeruginosa PA287
[2] = tested on: Pseudomonas aeruginosa PA214
[3] = tested on: Escherichia coli K-12
[4] = tested on: Pseudomonas aeruginosa PAO1
[5] = tested on: Staphylococcus aureus HNCMO 112011
[6] = tested on: Escherichia coli ATCC 8739
[7] = tested on: Acinetobacter baumannii ATCC 17978
[8] = tested on: Escherichia coli CCARM 1229
[9] = tested on: Enterococcus faecalis KCTC 2011
[10] = tested on: Escherichia coli KCTC 1682
[11] = tested on: Staphylococcus aureus KCTC 1621
[12] = tested on: Salmonella typhimurium CCARM 8009
[13] = tested on: Acinetobacter baumannii CCARM 12035
[14] = tested on: Pseudomonas aeruginosa KCTC 1637
[15] = tested on: Salmonella typhimurium KCTC 1926
[16] = tested on: Bacillus subtilis KCTC 3068
[17] = tested on: Pseudomonas aeruginosa CCARM 2095
[18] = tested on: Staphylococcus aureus ATCC 25923
[19] = tested on: Pseudomonas aeruginosa ATCC 27853
[20] = tested on: Escherichia coli BW25113 ΔsbmA
[21] = tested on: Acinetobacter baumannii ATCC 19606
[22] = tested on: Escherichia coli
[23] = tested on: Klebsiella pneumoniae ATCC 700603
[24] = tested on: Escherichia coli BW25113
[25] = tested on: Streptococcus equi
[26] = tested on: Streptococcus oralis
[27] = tested on: Staphylococcus aureus MR
[28] = tested on: Pasteurella multocida
[29] = tested on: Candida glabrata
[30] = tested on: Staphylococcus aureus ATCC 29213
[31] = tested on: Streptococcus lutetiensis
[32] = tested on: Streptococcus dysgalactiae
[33] = tested on: Candida krusei ATCC 6258
[34] = tested on: Streptococcus agalactiae ATCC 12386
[35] = tested on: Streptococcus pneumoniae ATCC 49619
[36] = tested on: Klebsiella pneumoniae
[37] = tested on: Candida albicans
[38] = tested on: Streptococcus mutans
[39] = tested on: Listeria monocytogenes
[40] = tested on: Streptococcus salivarius
[41] = tested on: Candida parapsilosis ATCC 22019
[42] = tested on: Streptococcus pyogenes ATCC 19615

## C[C@H](NC(=O)[C@H](C)NC(=O)[C@H](CCCCN)NC(=O)[C@H](Cc1ccccc1)NC(=O)[C@H](C)NC(=O)[C@H](CCCCN)NC(=O)[C@H](C)NC(=O)[C@H](Cc1c[nH]c2ccccc12)NC(=O)[C@H](C)NC(=O)[C@H](CCCCN)NC(=O)[C@H](C)NC(=O)[C@H](Cc1ccccc1)NC(=O)[C@H](C)NC(=O)[C@H](C)NC(=O)[C@H](CCCCN)NC(=O)[C@H](CCCCN)NC(=O)[C@@H](N)CCCCN)C(N)=O [KKKAAFAKAWAKAFKAA]
[1]
  MIC: ≥ 50 µM
[2]
  MIC: ≥ 50 µM
[3]
  MIC: 25 µM (≈ 45.9 µg/mL)
[4]
  MIC: 50 µM (≈ 91.8 µg/mL)

## CC[C@H](C)[C@H](NC(=O)[C@H](CCCCN)NC(=O)[C@H](CCCCN)NC(=O)[C@H](C)NC(=O)[C@H](CC(C)C)NC(=O)[C@H](C)NC(=O)[C@H](C)NC(=O)[C@H](CC(C)C)NC(=O)[C@H](C)NC(=O)[C@H](CCCCN)NC(=O)[C@H](CCCN=C(N)N)NC(=O)[C@H](CCCN=C(N)N)NC(=O)[C@H](CCCN=C(N)N)NC(=O)[C@H](CS)NC(=O)[C@H](Cc1ccc(O)cc1)NC(=O)[C@H](CC(C)C)NC(=O)[C@@H]1CCCN1C(=O)[C@H](CCCN=C(N)N)NC(=O)[C@H](CCCN=C(N)N)NC(=O)[C@H](CS)NC(=O)[C@H](CCC(N)=O)NC(=O)[C@@H](N)CCC(N)=O)C(=O)N[C@@H](CC(C)C)C(=O)O [QQCRRPLYCRRRKALAALAKKIL]
[5]
  MIC: 3.1 µM (≈ 8.54 µg/mL)
[6]
  MIC: 3.1 µM (≈ 8.54 µg/mL)
[7]
  MIC: 3.1 µM (≈ 8.54 µg/mL)

## CC[C@H](C)[C@H](NC(=O)CNC(=O)[C@H](CC(=O)O)NC(=O)[C@H](CCCN=C(N)N)NC(=O)[C@@H](NC(=O)[C@H](CC(N)=O)NC(=O)[C@H](CCCN=C(N)N)NC(=O)CNC(=O)[C@@H](NC(=O)[C@H](CCCCN)NC(=O)[C@H](CCC(=O)O)NC(=O)[C@@H](NC(=O)[C@H](CCCCN)NC(=O)[C@H](CCCCN)NC(=O)[C@H](C)NC(=O)[C@@H](NC(=O)[C@H](CCCCN)NC(=O)[C@H](C)NC(=O)[C@@H](N)CCCN=C(N)N)[C@@H](C)CC)[C@@H](C)CC)C(C)C)C(C)C)C(=O)N[C@H](C(=O)N[C@@H](CCCCN)C(=O)N[C@@H](C)C(N)=O)[C@@H](C)CC [RAKIAKKIEKVGRNVRDGIIKA]
[8]
  MIC: 4 µM (≈ 9.85 µg/mL)
[9]
  MIC: ≥ 128 µM
[10]
  MIC: 2 µM (≈ 4.93 µg/mL)
[11]
  MIC: ≥ 128 µM
[12]
  MIC: 8 µM (≈ 19.7 µg/mL)
[13]
  MIC: ≥ 32 µM
[14]
  MIC: 8 µM (≈ 19.7 µg/mL)
[15]
  MIC: 4 µM (≈ 9.85 µg/mL)
[16]
  MIC: ≥ 128 µM
[17]
  MIC: 16 µM (≈ 39.4 µg/mL)

## CC[C@H](C)[C@H](NC(=O)[C@@H]1CCCN1C(=O)[C@H](Cc1c[nH]c2ccccc12)NC(=O)[C@H](CCCN=C(N)N)NC(=O)[C@H](Cc1ccccc1)NC(=O)[C@@H](N)CCCN=C(N)N)C(=O)N[C@@H](CCCN=C(N)N)C(=O)N[C@@H](CCCN=C(N)N)C(=O)N1CCC[C@H]1C(=O)N1CCC[C@H]1C(=O)N[C@H](C(=O)N[C@@H](CCCN=C(N)N)C(=O)N1CCC[C@H]1C(=O)N1CCC[C@H]1C(=O)N[C@@H](Cc1ccccc1)C(=O)N[C@@H](Cc1ccc(O)cc1)C(=O)N[C@@H](CCCN=C(N)N)C(=O)O)[C@@H](C)CC [RFRWPIRRPPIRPPFYR]
[18]
  MIC: > 64 µM
[19]
  MIC: 64 µM (≈ 148 µg/mL)
[20]
  MIC: 8 µM (≈ 18.5 µg/mL)
[21]
  MIC: 8 µM (≈ 18.5 µg/mL)
[22]
  MIC: 2.83 µM (≈ 6.54 µg/mL)
[23]
  MIC: 24 µM (≈ 55.5 µg/mL)
[24]
  MIC: 4 µM (≈ 9.24 µg/mL)

## CC[C@H](C)[C@H](NC(=O)CNC(=O)[C@H](CC(=O)O)NC(=O)CNC(=O)[C@H](CC(C)C)NC(=O)[C@H](CCCN=C(N)N)NC(=O)[C@H](CCCCN)NC(=O)[C@H](CC(C)C)NC(=O)[C@H](CC(C)C)NC(=O)[C@H](CO)NC(=O)[C@H](CCCN=C(N)N)NC(=O)[C@H](CCCN=C(N)N)NC(=O)[C@H](CCCCN)NC(=O)[C@@H](NC(=O)[C@H](CCCCN)NC(=O)[C@@H](N)CO)[C@@H](C)O)C(=O)N[C@@H](CCCN=C(N)N)C(=O)NCC(=O)N[C@@H](Cc1ccccc1)C(=O)N[C@@H](Cc1c[nH]c2ccccc12)C(=O)N[C@@H](CC(N)=O)C(=O)NCC(=O)N[C@@H](Cc1ccccc1)C(=O)N[C@@H](CCCN=C(N)N)C(=O)NCC(=O)N[C@@H](CCCN=C(N)N)C(=O)N[C@@H](CCCCN)C(=O)O [SKTKRRSLLKRLGDGIRGFWNGFRGRK]
[25]
  MIC: 20.1 µM (≈ 64 µg/mL)
[19]
  MIC: > 20.1 µM
[26]
  MIC: 20.1 µM (≈ 64 µg/mL)
[27]
  MIC: 10 µM (≈ 32 µg/mL)
[28]
  MIC: 20.1 µM (≈ 64 µg/mL)
[29]
  MIC: 20.1 µM (≈ 64 µg/mL)
[30]
  MIC: 10 µM and 6.27 µM
[31]
  MIC: 20.1 µM (≈ 64 µg/mL)
[32]
  MIC: 20.1 µM (≈ 64 µg/mL)
[33]
  MIC: 20.1 µM (≈ 64 µg/mL)
[34]
  MIC: 20.1 µM (≈ 64 µg/mL)
[35]
  MIC: 20.1 µM (≈ 64 µg/mL)
[36]
  MIC: > 20.1 µM
[37]
  MIC: > 20.1 µM
[38]
  MIC: 20.1 µM (≈ 64 µg/mL)
[39]
  MIC: 20.1 µM (≈ 64 µg/mL)
[40]
  MIC: 10 µM (≈ 32 µg/mL)
[41]
  MIC: 10 µM (≈ 32 µg/mL)
[42]
  MIC: 20.1 µM (≈ 64 µg/mL)
